Test results as given in ChEMBL document CHEMBL4715869, “N-(Pyrimidin-2-yl)-1,2,3,4-tetrahydroisoquinolin-6-amine Derivatives as Selective Janus Kinase 2 Inhibitors for the Treatment of Myeloproliferative Neoplasms” (J Med Chem, 2020).

Experiments:
Homo sapiens = species: Homo sapiens; assay: Selectivity index, ratio of IC50 for inhibition of FLT3 ITD mutant in human MOLM13 cells to IC50 for inhibition of JAK2 V617F mutant in human SET-2 cells; assay type: cell-based
[1] = tested on: Receptor-type tyrosine-protein kinase FLT3 (Homo sapiens), P36888 [UNDEFINED MUTATION]; assay: Inhibition of FLT3 ITD mutant in human MOLM13 cells assessed as residual activity at 100 nM relative to control; assay type: cell-based; conditions: MOLM-13
Sequence of Receptor-type tyrosine-protein kinase FLT3 (Homo sapiens), P36888 [UNDEFINED MUTATION] (P36888 whole entry, looked up, change not shown): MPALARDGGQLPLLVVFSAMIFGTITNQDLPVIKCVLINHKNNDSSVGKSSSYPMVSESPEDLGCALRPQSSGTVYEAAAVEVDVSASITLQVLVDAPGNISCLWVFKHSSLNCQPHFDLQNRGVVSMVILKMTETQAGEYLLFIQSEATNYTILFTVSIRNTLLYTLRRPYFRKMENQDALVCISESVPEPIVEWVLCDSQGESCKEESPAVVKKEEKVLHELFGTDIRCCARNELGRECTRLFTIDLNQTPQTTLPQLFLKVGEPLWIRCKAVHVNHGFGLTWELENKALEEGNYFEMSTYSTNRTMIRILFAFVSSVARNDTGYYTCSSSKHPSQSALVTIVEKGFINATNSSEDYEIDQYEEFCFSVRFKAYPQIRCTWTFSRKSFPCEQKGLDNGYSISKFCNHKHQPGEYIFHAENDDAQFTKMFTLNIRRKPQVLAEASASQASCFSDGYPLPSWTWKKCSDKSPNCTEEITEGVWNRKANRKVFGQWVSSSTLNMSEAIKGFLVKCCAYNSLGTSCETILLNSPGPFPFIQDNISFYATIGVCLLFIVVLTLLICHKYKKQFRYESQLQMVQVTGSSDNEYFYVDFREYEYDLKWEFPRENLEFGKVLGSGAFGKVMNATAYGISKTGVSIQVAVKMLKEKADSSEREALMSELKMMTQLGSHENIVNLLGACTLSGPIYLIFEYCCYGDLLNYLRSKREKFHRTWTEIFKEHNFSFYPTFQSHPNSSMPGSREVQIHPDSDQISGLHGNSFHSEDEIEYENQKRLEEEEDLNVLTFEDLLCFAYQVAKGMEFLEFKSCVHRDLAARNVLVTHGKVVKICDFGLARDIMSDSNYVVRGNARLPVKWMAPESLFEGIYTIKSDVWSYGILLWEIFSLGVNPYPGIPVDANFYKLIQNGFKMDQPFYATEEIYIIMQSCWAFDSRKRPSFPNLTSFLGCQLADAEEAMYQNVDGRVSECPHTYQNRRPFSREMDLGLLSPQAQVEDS

SMILES | Activity [1] [%] | Ratio IC50 (Homo sapiens)
CCNC(=O)N1CCc2cc(Nc3ncc(C)c(-c4cnn(C(C)C)c4)n3)ccc2C1 | – | 0.45
Cc1cnc(Nc2ccc3c(c2)CCN3CCO)nc1-c1cnn(C(C)C)c1 | 79 | 0.54
CC(C)n1cc(-c2nc(Nc3ccc4c(c3)CCN(C(=O)CO)C4)ncc2F)cn1 | 39 | 0.79
Cc1cnc(Nc2ccc3c(c2)CCN(C(=O)CCCN(C)C)C3)nc1-c1cnn(C(C)C)c1 | – | 1.5
Cc1cnc(Nc2ccc3c(c2)CCN(C(=O)Nc2cccc(Cl)c2)C3)nc1-c1cnn(C(C)C)c1 | 99 | 0.6
Cc1cnc(Nc2cc3c(cc2F)CN(CCO)CC3)nc1-c1cnn(C(C)C)c1 | – | > 1.2
CCCNC(=O)N1CCc2cc(Nc3ncc(C)c(-c4cnn(C(C)C)c4)n3)ccc2C1 | – | 1.2
COC(=O)/C=C/CN1CCc2ccc(Nc3ncc(C)c(-c4cnn(C(C)C)c4)n3)cc2C1 | 43 | 6
CCN(CC)C(=O)/C=C/CN1CCc2cc(Nc3ncc(C)c(-c4cnn(C(C)C)c4)n3)ccc2C1 | 66 | 2
Cc1cnc(Nc2ccc3c(c2)CCN(C/C=C/C(=O)NC(C)(C)C)C3)nc1-c1cnn(C(C)C)c1 | – | 1.7
COC(=O)CCCN1CCc2cc(Nc3ncc(C)c(-c4cnn(C(C)C)c4)n3)ccc2C1 | – | 1.2
Cc1cnc(Nc2ccc3c(n2)CCN(CCCO)C3)nc1-c1cnn(C(C)C)c1 | 88 | 1.1
Cc1ccc(C(=O)CCC(=O)N2CCc3cc(Nc4ncc(C)c(-c5cnn(C(C)C)c5)n4)ccc3C2)cc1 | – | 1.7
Cc1cnc(Nc2ccc3c(c2)CCN(C/C=C/C(=O)NCCN2CCCCC2)C3)nc1-c1cnn(C(C)C)c1 | – | 3.8

Continued, in another order:

Activity [1] [%] | SMILES | Ratio IC50 (Homo sapiens)
56 | Cc1cnc(Nc2ccc3c(c2)CCN(CCCCO)C3)nc1-c1cnn(C(C)C)c1 | 3.3
67 | C=CCN1CCc2cc(Nc3ncc(C)c(-c4cnn(C(C)C)c4)n3)ccc2C1 | 3
57 | CCCCN1CCc2cc(Nc3ncc(C)c(-c4cnn(C(C)C)c4)n3)ccc2C1 | 1.3
44 | CC(C)n1cc(-c2nc(Nc3ccc4c(c3)CCN(CCCO)C4)ncc2F)cn1 | 1.4
51 | Cc1cnc(Nc2ccc3c(c2)CN(CC#N)CC3)nc1-c1cnn(C(C)C)c1 | 4.5
35 | Cc1cnc(Nc2ccc3c(c2)CCN(CCC#N)C3)nc1-c1cnn(C(C)C)c1 | 1.2
78 | Cc1cnc(Nc2ccc3c(c2)CCN(C/C=C/C(=O)O)C3)nc1-c1cnn(C(C)C)c1 | 2.5
42 | CC(C)n1cc(-c2nc(Nc3ccc4c(c3)CCN(CCCCCO)C4)ncc2F)cn1 | 0.72
62 | Cc1cnc(Nc2ccc3c(c2)CCN(CCCO)C3)nc1-c1cnn(C(C)C)c1 | 3.4
85 | CC#CCN1CCc2cc(Nc3ncc(C)c(-c4cnn(C(C)C)c4)n3)ccc2C1 | 2
39 | CC(C)n1cc(-c2nc(Nc3ccc4c(c3)CCN(CCCCO)C4)ncc2F)cn1 | 0.75
66 | Cc1cnc(Nc2ccc3c(c2)CCN(CCO)C3)nc1-c1cnn(C(C)C)c1 | 3.9
40 | CCOCCN1CCc2cc(Nc3ncc(C)c(-c4cnn(C(C)C)c4)n3)ccc2C1 | 1.7
43 | CC(C)n1cc(-c2nc(Nc3ccc4c(c3)CCN(CCO)C4)ncc2F)cn1 | 0.84
79 | C#CCN1CCc2cc(Nc3ncc(C)c(-c4cnn(C(C)C)c4)n3)ccc2C1 | –
67 | Cc1cnc(Nc2ccc3c(c2)CN(CCO)C3)nc1-c1cnn(C(C)C)c1 | –
63 | Cc1cnc(Nc2ccc3c(c2)CCN(CCCCCO)C3)nc1-c1cnn(C(C)C)c1 | –
